Experimental data published in patent publication US11427605B2, “Crystalline forms of 5-chloro-N4-[-2-(dimethylphosphoryl) phenyl]-N2-{2-methoxy-4-[4-(4-methylpiperazin-1-yl) piperidin-1-yl] phenyl} pyrimidine-2,4-diamine” (ARIAD Pharmaceuticals, Inc., priority 2014, dated 2022).
Converted amounts (≈) assume the structure as drawn. “And” between values parts separate entries of the source, which are not always exact repeats. Equal entries are not always repeated.

Assays:
Assay type in all cases: physicochemical
[1] = Slurry experiments at 20° C. and 40° C.; details: slurry 40° C., Chloroform; the solids dissolved after 14 days
Method: A total of 68 slurry experiments were performed with brigatinib both at room temperature (20° C.) and 40° C., using 34 solvents. In all cases, a solvent volume of 250 μL was used. The slurries were stirred for two weeks. At the end of the slurry time, the vials were centrifuged and solids and mother liquids separated. The solids were analyzed wet and dry by XRPD and digital imaging. The measuring plates were then stored at ambient conditions for 3-4 weeks and another XRPD was obtained of the solid, any form change is shown by an arrow.

[2] = Quantitative solubility testing, set of 24 solvents (HPLC); details: for solubility at 24 h: 20 °C
Method: Quantitative solubility testing was performed on brigatinib starting material, employing a set of 24 solvents (DMSO, heptane and water were performed in triplicate). In a vial, about 40 mg of starting material, 400 μL of solvent and a stir bar were added. After stirring for 24 h at 20° C. […], the liquid was retrieved, filtered, and analyzed for API content by HPLC.

[3] = Thermocycling experiments; details: thermocycling 5-40° C., 8 cycles
Method: A total of 33 slurries and 1 solution (chloroform) of starting material in solvents were prepared at room temperature. The mixtures were placed in a Crystal16™ to undergo the following temperature profile:
1. Heating at a rate of 5° C./h until reaching 40° C., with stirring (500 rpm)
2. Cooling at a rate of 5° C./h until 5° C., with stirring (200 rpm)
3. Aging for 30 min at 5° C.
After completion of the cycling program, the solids were separated from the mother liquids by centrifugation, dried under 200 mbar for 48 hours (2-ethoxyethanol for 283 hours) and analyzed by XRPD and digital imaging. For the applied crystallization conditions and corresponding obtained solid forms, see Table 24. Solid form (or mixture) following the arrow (→) was obtained upon remeasurement by XRPD after storage of the measuring plates at ambient conditions for 5 weeks.

[4] = Crash crystallization with anti-solvent addition
Method: In the crash-crystallization experiments, 34 different crystallization conditions were applied, using 6 different solvents and 24 different anti-solvents (see Table 17). The anti-solvent addition experiments were performed forward. For each solvent, a stock solution was prepared, the concentration of brigatinib in each case being that attained at saturation at ambient temperature after equilibration for 24 hours before filtering.
For each experiment, the anti-solvent was added to each solvent vial, with a solvent to anti-solvent ratio of 1:0.25. In the cases where no precipitation occurred, this ratio was increased to 1:1, and if again no precipitation occurred the ratio was increased to 1:4, with a waiting time of 60 minutes between the additions (up to the third addition) and 35 minutes between the third addition and fourth addition. When no crystallization occurred or not enough solids precipitated for separation, samples were kept at 5° C. for 17 hours. The precipitated solids were separated from the liquids by centrifugation and decantation. When decantation could not be applied, the liquid was carefully removed using Pasteur's pipettes. The solids were dried at 200 mbar for 17 hours and analyzed by XRPD and digital imaging. In the cases where no precipitation occurred, the solvents were evaporated at 200 mbar for 17 hours prior to lowering the vacuum to 5 mbar. All obtained solids were analyzed by XRPD and digital imaging. The measuring plates containing the final solid were stored at ambient temperature for 5 weeks. The solid form was assessed again by XRPD. The arrows in Table 18 indicate if the form changed during storage.

[5] = Freeze-drying feasibility study; details: organic solvent or mixture, thermodynamic from solid, data obtained from freeze drying experiment
Method: Freeze-drying. Six freeze-drying experiments were performed with samples of Form A as described in Table 10. Samples 1, 2, and 4 remained mostly crystalline, but samples 3 and 5 were amorphous and contained about 15-16% residual solvent. Sample 6 was amorphous and contained about 7% residual solvent. Forms E and F were produced using this method. However, due to the variable form and solvation, freeze-drying was not further employed to obtain amorphous brigatinib.

[6] = Vapor diffusion into solution experiments; details: solvent Cis-Decahydronaphthalene, anti-solvent vapor MethylCyclohexane, room temperature, two weeks; dry
Method: For the vapor diffusion into solution experiments, saturated solutions of brigatinib were exposed to anti-solvent vapors at room temperature for two weeks. An aliquot of saturated solution was transferred to a vial which was left open and placed in a closed container with anti solvent (see Table 20). After two weeks, the samples were evaluated for solid formation. Where solids were present, the liquids were separated from the solids, which were then dried at full vacuum. In the cases where no precipitation was observed, the solvents were placed overnight at 5° C. to promote precipitation. If no solids were present, the liquids were evaporated at 200 mbar for 75 hours, or, if still no solids were present, the liquids were further evaporated at 10 mbar for a maximum of 10 days. All obtained solids were analyzed dry by XRPD and digital imaging.

In the case of COc1cc(N2CCC(N3CCN(C)CC3)CC2)ccc1Nc1ncc(Cl)c(Nc2ccccc2P(C)(C)=O)n1 [Brigatinib], the “Form dry (XRPD)” value [1] is reported as “A + E”, the solubility at 24 h ([2]; 1,2-dichloroethane, organic solvent or mixture, thermodynamic from solid, 1,2-Dichloroethane) is reported as 38300 µg/mL (≈ 65600 µM) and the solubility at 24 h ([2]; 1,2-dimethoxyethane, organic solvent or mixture, thermodynamic from solid, 1,2-Dimethoxyethane) is reported as 1130 µg/mL (≈ 1930 µM). For the same compound, the solubility at 24 h ([2]; 1,4-dioxane, organic solvent or mixture, thermodynamic from solid, 1,4-Dioxane) was 4010 µg/mL (≈ 6870 µM), the solubility at 24 h ([2]; 1-butanol, organic solvent or mixture, thermodynamic from solid) was 17700 µg/mL (≈ 30400 µM) and the solubility at 24 h ([2]; 2-butanone, organic solvent or mixture, thermodynamic from solid) was 1110 µg/mL (≈ 1900 µM). For the same compound, the solubility ([2]; Dimethyl Sulfoxide, 20° C., 24 h, triplicate) was 3020 µg/mL and 3050 µg/mL, the solubility ([2]; Ethyl Formate, 20° C., 24 h) was 990 µg/mL (≈ 1690 µM) and the solubility at 24 h ([2]; N,N-dimethylacetamide, organic solvent or mixture, thermodynamic from solid) was 470 µg/mL (≈ 805 µM). For the same compound, the solubility at 24 h ([2]; acetone, organic solvent or mixture, thermodynamic from solid) was 690 µg/mL (≈ 1180 µM), the solubility at 24 h ([2]; acetonitrile, organic solvent or mixture, thermodynamic from solid) was 360 µg/mL (≈ 616 µM) and the solubility at 24 h ([2]; butyl acetate, organic solvent or mixture, thermodynamic from solid) was 320 µg/mL (≈ 548 µM). It also gave a solubility at 24 h ([2]; chloroform, organic solvent or mixture, thermodynamic from solid, sample dissolved, no solids harvested) of over 182000 µg/mL, a solubility at 24 h ([2]; cyclohexane, organic solvent or mixture, thermodynamic from solid, UR = under range) of under 10 µg/mL and a solubility at 24 h ([2]; dichloromethane, organic solvent or mixture, thermodynamic from solid, sample dissolved, no solids harvested) of over 197000 µg/mL. The solubility at 24 h ([2]; dimethyl sulfoxide, organic solvent or mixture, thermodynamic from solid, triplicate) was 2950 µg/mL (≈ 5050 µM), the solubility at 24 h ([2]; ethanol, organic solvent or mixture, thermodynamic from solid) was 6710 µg/mL (≈ 11500 µM) and the solubility at 24 h ([2]; ethyl acetate, organic solvent or mixture, thermodynamic from solid) was 420 µg/mL (≈ 719 µM). For the same compound, the solubility at 24 h ([2]; isopropanol, organic solvent or mixture, thermodynamic from solid) was 1550 µg/mL (≈ 2650 µM), the solubility at 24 h ([2]; isopropyl acetate, organic solvent or mixture, thermodynamic from solid, UR = under range) was under 10 µg/mL and the solubility at 24 h ([2]; methanol, organic solvent or mixture, thermodynamic from solid) was 35300 µg/mL (≈ 60500 µM). For the same compound, the solubility at 24 h ([2]; n-heptane, organic solvent or mixture, thermodynamic from solid, triplicate, UR = under range) was under 10 µg/mL, the solubility at 24 h ([2]; nitromethane, organic solvent or mixture, thermodynamic from solid) was 410 µg/mL (≈ 702 µM) and the solubility at 24 h ([2]; p-xylene, organic solvent or mixture, thermodynamic from solid) was 350 µg/mL (≈ 599 µM). The “Residual solids after solubility testing, form by XRPD” value ([2]; set of 24 solvents, 20° C., 24 h) was “Form A”, the solubility at 24 h ([2]; tetrahydrofuran, organic solvent or mixture, thermodynamic from solid, UR = under range) was under 10 µg/mL and the solubility at 24 h ([2]; water, thermodynamic from solid, triplicate) was 90 µg/mL (≈ 154 µM). The “Form mother liquid (XRPD)” value ([3]; Chloroform) was “A + G”, the “Form mother liquid (XRPD)” value ([3]; n-Heptane) was “A + L” and the “Form (XRPD)” value ([4]; solvent 1,4-Dioxane, anti-solvent Water, S:AS 1:4, no precipitation) was “A + H”. For the same compound, the “Form (XRPD)” value ([4]; solvent Chloroform, anti-solvent tert-Butyl methyl ether, S:AS 1:4, precipitation, wet) was “A + G”, the “Form (XRPD)” value ([4]; solvent Ethanol, anti-solvent Water, S:AS 1:4, no precipitation) was “A + H” and the solubility ([5]; 2,2,2-trifluoroethanol/water (80:20)) was over 159000 µg/mL. The solubility ([5]; 2,2,2-trifluoroethanol/water (90:10)) was over 172000 µg/mL, the solubility ([5]; 2,2,2-trifluoroethanol) was over 224000 µg/mL and the “Form (XRPD)” value [6] was “Am”.
